In this experiment the target is MAPK14 (human) (UniProt Q16539). Kind of experiment: Assessment of MAPK14 Kinase Activity.
Sequence of MAPK14 (human) (Q16539 whole entry, looked up): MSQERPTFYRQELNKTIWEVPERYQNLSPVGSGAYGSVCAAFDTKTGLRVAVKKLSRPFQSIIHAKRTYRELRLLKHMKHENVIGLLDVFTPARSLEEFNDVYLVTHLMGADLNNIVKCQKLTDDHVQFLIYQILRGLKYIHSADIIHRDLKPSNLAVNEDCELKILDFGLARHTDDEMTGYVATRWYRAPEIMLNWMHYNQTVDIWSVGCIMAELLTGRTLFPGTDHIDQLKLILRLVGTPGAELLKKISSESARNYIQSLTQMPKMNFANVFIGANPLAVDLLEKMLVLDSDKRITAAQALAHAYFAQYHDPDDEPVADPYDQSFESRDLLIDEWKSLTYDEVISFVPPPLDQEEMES
By IC50 is commonly meant the concentration that gives 50% inhibition. Low readings indicate higher potency, high ones lower potency. In the case of `Cc1nnc(CN2CCN(C(=O)c3cc(C(C)(C)C)sc3NC(=O)Nc3ccc(C)c(-c4ccncc4)c3)C(C)(C)C2=O)o1`, the IC50 was less than 100 nM.
`CC(C)(C)c1cc(C(=O)N2CCNC(=O)C2(C)C)c(NC(=O)Nc2cccc(-c3ccncc3)c2)s1` gave an IC50 of less than 100 nM.
The compound `CN1CCN(CCCOc2ccc(-c3cccc(NC(=O)Nc4sc(C(C)(C)C)cc4C(=O)N4CCNC(=O)C4(C)C)c3)cn2)CC1` registered an IC50 of less than 100 nM.
Consider `Cc1ccc(NC(=O)Nc2sc(C(C)(C)C)cc2C(=O)N2CCN(C)C(=O)C2(C)C)cc1-c1ccc(CN2CCCC2)nc1`, for which the IC50 was less than 100 nM.
Next, `Cc1ccc(NC(=O)Nc2sc(C(C)(C)C)cc2C(=O)N2CCNC(=O)C2(C)C)cc1-c1ccc(C(C)O)nc1` (centres undefined): less than 100 nM; `Cc1ccc(NC(=O)Nc2sc(C(C)(C)C)cc2C(=O)N2CCNC(=O)C2(C)C)cc1-c1ccc(OC2CCOCC2)nc1`: less than 100 nM; `Cc1ccc(NC(=O)Nc2sc(C(C)(C)C)cc2C(=O)N2CCNC(=O)C2(C)C)cc1-c1ccc(OCCN2CCNCC2)nc1`: less than 100 nM.
Next, `Cc1ccc(NC(=O)Nc2cc(C(C)(C)C)sc2C(=O)N2CCN(C)C(=O)C2(C)C)cc1-c1ccc(N2CCOCC2)nc1`: less than 100 nM; `COc1ccc(-c2cc(NC(=O)Nc3cc(C(C)(C)C)sc3C(=O)N3CCNC(=O)C3(C)C)ccc2C)cn1`: less than 100 nM; `CCNC(=O)c1ccc(-c2cc(NC(=O)Nc3sc(C(C)(C)C)nc3C(=O)N3CCN(C)C(=O)C3(C)C)ccc2C)cn1`: less than 100 nM.
Next, `CC(C)(C)c1cc(C(=O)N2CCNC(=O)C2(C)C)c(NC(=O)Nc2cccc(-c3cccnc3)c2)s1`: less than 100 nM; `Cc1ccc(NC(=O)Nc2sc(C(C)(C)C)cc2C(=O)N2CCNC(=O)C2(C)C)cc1-c1ccc(OCCN(C)C)nc1`: less than 100 nM; `CCc1ccc(-c2cc(NC(=O)Nc3cn(C4(C)CCCC4)nc3C(=O)N3CCNC(=O)C3(C)C)ccc2C)cn1`: less than 100 nM.
`Cc1ccc(-c2ccc(N3CCOCC3)nc2)cc1NC(=O)Nc1sc(C(C)(C)C)cc1C(=O)N1CCNC(=O)C1(C)C` came in with an IC50 of less than 100 nM.
Next, `Cc1ccc(NC(=O)Nc2sc(C(C)(C)C)cc2C(=O)N2CCNC(=O)C2(C)C)cc1-c1ccc(OCCCN(C)C)nc1`: less than 100 nM.
Next, `Cc1ccc(NC(=O)Nc2sc(C(C)(C)C)cc2C(=O)N2CCN(C)C(=O)C2(C)C)cc1-c1ccc(CN2CCOCC2)nc1`: less than 100 nM; `CC(=O)N1CCN(C(=O)c2cc(C(C)(C)C)sc2NC(=O)Nc2ccc(C)c(-c3cccnc3)c2)CC1`: less than 100 nM.
`CCNC(=O)c1ccc(-c2cc(NC(=O)Nc3cn(C(C)(C)C)nc3C(=O)N3CCNC(=O)C3(C)C)ccc2C)cn1` yielded an IC50 of less than 100 nM.
Next, `COc1ccc(-c2cc(NC(=O)Nc3cc(C(C)(C)C)sc3C(=O)N3CCN(CCO)C(=O)C3(C)C)ccc2C)cn1`: less than 100 nM.
The compound `Cc1nnc(-c2ccc(-c3cc(NC(=O)Nc4sc(C(C)(C)C)cc4C(=O)N4CCN(C)C(=O)C4(C)C)ccc3C)cn2)o1` had an IC50 of less than 100 nM.
Next, `Cc1ccc(NC(=O)Nc2sc(C(C)(C)C)cc2C(=O)N2CCNC(=O)C2(C)C)cc1C#CCN1CCOCC1`: less than 100 nM; `Cc1ccc(NC(=O)Nc2sc(C(C)(C)C)cc2C(=O)N2CCNC(=O)C2(C)C)cc1-c1cnc(N2CCOCC2)nc1`: less than 100 nM.
The same measure for `CCNC(=O)c1ccc(-c2cc(NC(=O)Nc3cc(C(C)(C)C)sc3C(=O)N3CCNC(=O)C3(C)C)ccc2C)cn1`: less than 100 nM; for `Cc1ccc(NC(=O)Nc2cn(C(C)(C)C)nc2C(=O)N2CCN(C)C(=O)C2(C)C)cc1-c1ccc(CN2CCOCC2)nc1`: less than 100 nM.
`Cc1ccc(NC(=O)Nc2sc(C(C)(C)C)cc2C(=O)N2CCNC(=O)C2(C)C)cc1-c1ccc(N(C)C)nc1` returned an IC50 of less than 100 nM.
In the case of `Cc1nnc(-c2ccc(-c3cc(NC(=O)Nc4sc(C(C)(C)C)nc4C(=O)N4CCN(C)C(=O)C4(C)C)ccc3C)cn2)o1`, the concentration for half-maximal inhibition (IC50) was less than 100 nM.
The same measure for `Cc1ccc(NC(=O)Nc2sc3c(c2C(=O)N2CCN(C)C(=O)C2(C)C)CCOC3)cc1-c1ccc(CN2CCOCC2)nc1`: 100 to 1000 nM; for `Cc1ccc(NC(=O)Nc2oc(C(C)(C)C)cc2C(=O)N2CCNC(=O)C2(C)C)cc1-c1ccncc1`: less than 100 nM; for `CCc1ccc(-c2cc(NC(=O)Nc3sc(C(C)(C)C)cc3C(=O)N3CCNC(=O)C3(C)C)ccc2C)nc1`: less than 100 nM.
The same measure for `CCNC(=O)c1ccc(-c2cc(NC(=O)Nc3cc(C(C)(C)C)oc3C(=O)N3CCN(C)C(=O)C3(C)C)ccc2C)cn1`: less than 100 nM; for `COc1ccc(-c2cc(NC(=O)Nc3sc(C(C)(C)C)cc3C(=O)N3CCNC(=O)C3(C)C)cc(F)c2C)cn1`: less than 100 nM; for `Cc1ccc(NC(=O)Nc2sc(C(C)(C)C)nc2C(=O)N2CCN(C)C(=O)C2(C)C)cc1-c1ccc(CN2CCOCC2)nc1`: less than 100 nM.
Next, `Cc1ccc(NC(=O)Nc2sc(C(C)(C)C)cc2C(=O)N2CCNC(=O)C2(C)C)cc1C#Cc1ccccn1`: less than 100 nM; `COc1ccc(-c2ccc(C)c(NC(=O)Nc3sc(C(C)(C)C)cc3C(=O)N3CCNC(=O)C3(C)C)c2)cn1`: less than 100 nM; `Cc1ccc(NC(=O)Nc2sc(C(C)(C)C)nc2C(=O)N2CCN(C)C(=O)C2(C)C)cc1-c1ccc(CN2CCOCC2)cn1`: less than 100 nM.
As for `Cc1ccc(-c2cc(NC(=O)Nc3sc(C(C)(C)C)cc3C(=O)N3CCN(C)C(=O)C3(C)C)ccc2C)cn1`, the IC50 was less than 100 nM.
The same measure for `CCN1CCN(C(=O)c2sc(C(C)(C)C)cc2NC(=O)Nc2ccc(C)c(-c3ccc(CN4CCOCC4)nc3)c2)C(C)(C)C1=O`: less than 100 nM; for `Cc1ccc(NC(=O)Nc2sc(C(C)(C)C)cc2C(=O)N2CCNC(=O)C2(C)C)cc1-c1ccc(NCC(C)C)nc1`: less than 100 nM.
As for `Cc1ccc(NC(=O)Nc2sc(C(C)(C)C)cc2C(=O)N2CCNC(=O)CC2)cc1-c1cccnc1`, the concentration for half-maximal inhibition (IC50) was less than 100 nM.
The same measure for `Cc1ccc(NC(=O)Nc2cn(C(C)(C)C)nc2C(=O)N2CCN(C)C(=O)C2(C)C)cc1-c1ccc(C(C)C)nc1`: less than 100 nM; for `CON(C)C(=O)c1ccc(-c2cc(NC(=O)Nc3sc(C(C)(C)C)cc3C(=O)N3CCN(C)C(=O)C3(C)C)ccc2C)cn1`: less than 100 nM; for `CCNC(=O)c1ccc(-c2cc(NC(=O)Nc3cn(C(C)(C)C)nc3C(=O)N3CCN(C)C(=O)C3(C)C)ccc2C)cn1`: less than 100 nM.
In the case of `Cc1ccc(NC(=O)Nc2sc(C(C)(C)C)cc2C(=O)N2CCN(C)C(=O)C2(C)C)cc1-c1ccc(CN2CCN(C)CC2)nc1`, the IC50 was less than 100 nM.
The same measure for `CCc1ccc(-c2cc(NC(=O)Nc3sc(C(C)(C)C)cc3C(=O)N3CCNC(=O)C3(C)C)cc(F)c2C)cn1`: less than 100 nM.
Next, `Cc1cc(NC(=O)Nc2cc(C(C)(C)C)sc2C(=O)N2CCNC(=O)C2(C)C)cc(-c2ccc(N3CCOCC3)cn2)c1`: less than 100 nM; `Cc1ccc(NC(=O)Nc2sc(C(C)(C)C)cc2C(=O)N2CCNC(=O)C2(C)C)cc1-c1cc[n+]([O-])cc1`: less than 100 nM; `COc1ccc(NC(=O)Nc2sc(C(C)(C)C)cc2C(=O)N2CCNC(=O)C2(C)C)c(C)c1-c1ccncc1`: less than 100 nM.
Next, `CCc1ccc(-c2cc(NC(=O)Nc3cn(C(C)(C)C)nc3C(=O)N3CCN(C)C(=O)C3(C)C)cc(F)c2C)cn1`: less than 100 nM; `Cc1ccc(NC(=O)Nc2sc(C(C)(C)C)cc2C(=O)N2CCNC(=O)C2(C)C)cc1-c1ccc(OCCCN2CCOCC2)nc1`: less than 100 nM.
As to `Cc1ccc(NC(=O)Nc2cn(C(C)(C)C)nc2C(=O)N2CCNC(=O)C2(C)C)cc1-c1ccc(CN2CCOCC2)cn1`, the IC50 was less than 100 nM.
The same measure for `Cc1ccc(NC(=O)Nc2sc(C(C)(C)C)cc2C(=O)N2CCNC(=O)C2(C)C)cc1-c1ccc(OCCN2CCOCC2)nc1`: less than 100 nM; for `Cc1ccc(NC(=O)Nc2sc(C(C)(C)C)cc2C(=O)N2CCN(C)C(=O)C2(C)C)cc1-c1ccc(C(N)=O)nc1`: less than 100 nM; for `COc1ccc(NC(=O)Nc2sc(C(C)(C)C)cc2C(=O)N2CCNC(=O)C2(C)C)cc1-c1ccncc1`: less than 100 nM.
`Cc1ccc(NC(=O)Nc2sc(C(C)(C)C)cc2C(=O)N2CCNC(=O)C2(C)C)cc1-c1c(C)noc1C` yielded an IC50 of less than 100 nM.
`Cc1ccc(NC(=O)Nc2sc(C(C)(C)C)cc2C(=O)N2CCNC(=O)C2(C)C)cc1-c1ccc(OCCCN2CCN(C)CC2)nc1`: the IC50 was less than 100 nM.
The same measure for `Cc1nnc(-c2ccc(-c3cc(NC(=O)Nc4cc(C(C)(C)C)sc4C(=O)N4CCN(C)C(=O)C4(C)C)ccc3C)cn2)o1`: less than 100 nM.
The compound `Cc1ccc(NC(=O)Nc2cc(C(C)(C)C)sc2C(=O)N2CCNC(=O)C2(C)C)cc1-c1ccc(CN2CCOCC2)nc1` showed an IC50 of less than 100 nM.
For the compound `COc1ccc(-c2cc(NC(=O)Nc3sc(C(C)(C)C)cc3C(=O)N3CCN(C)C(=O)C3(C)C)ccc2C)cn1`, the IC50 is less than 100 nM.
Next, `CCNC(=O)c1ccc(-c2cc(NC(=O)Nc3cc(C(C)(C)C)sc3C(=O)N3CCN(C)C(=O)C3(C)C)ccc2C)cn1`: less than 100 nM; `Cc1ccc(NC(=O)Nc2sc(C(C)(C)C)cc2C(=O)N2CCNC(=O)C2(C)C)cc1-c1ccncc1`: less than 100 nM.
Next, `COc1ccc(-c2cc(NC(=O)Nc3sc(C(C)(C)C)cc3C(=O)N3CCNC(=O)C3(C)C)ccc2C)cn1`: less than 100 nM; `Cc1ccc(NC(=O)Nc2sc(C(C)(C)C)cc2C(=O)N2CCN(C(=O)CN(C)C)CC2)cc1-c1cccnc1`: 100 to 1000 nM; `Cc1ncc(NC(=O)Nc2sc(C(C)(C)C)cc2C(=O)N2CCN(C)C(=O)C2(C)C)cc1C#CC1CC1`: less than 100 nM.
Compound `Cc1ccc(NC(=O)Nc2sc(C(C)(C)C)cc2C(=O)N2CCN(C)C(=O)C2(C)C)cc1-c1ccc(NS(C)(=O)=O)nc1` came in with an IC50 of less than 100 nM.
The same measure for `CCc1ccc(-c2cc(NC(=O)Nc3cn(C(C)(C)C)nc3C(=O)N3CCNC(=O)C3(C)C)ccc2C)cn1`: less than 100 nM; for `Cc1ccc(NC(=O)Nc2sc(C(C)(C)C)cc2C(=O)N2CCNS(=O)(=O)CC2)cc1-c1ccc(CN2CCOCC2)nc1`: less than 100 nM; for `Cc1ccc(NC(=O)Nc2sc(C(C)(C)C)cc2C(=O)N2CCNC(=O)C2(C)C)cc1C#CCOCCN1CCOCC1`: less than 100 nM.
On to `Cc1ccc(NC(=O)Nc2sc(C(C)(C)C)cc2C(=O)N2CCN(C)C(=O)C2(C)C)cc1-c1ccc(-n2cccn2)nc1`, for which the IC50 is less than 100 nM.
Next, `C#Cc1cc(NC(=O)Nc2sc(C(C)(C)C)cc2C(=O)N2CCNC(=O)C2(C)C)ccc1C`: less than 100 nM.

(Values after the Kinase Knowledgebase extract (Sharma et al. 2016).)
